According to BigSolDB 2.1:

COC(=O)/C=C(\C)N[C@@H](C(=O)[O-])c1ccc(O)cc1.[K+]
Details	solubility (mole fraction)
in 2-pentanol, 293.25 K	6.22e-05
in 2-pentanol, 298.28 K	7.86e-05
in 2-pentanol, 303.35 K	9.99e-05
in 2-pentanol, 308.19 K	0.000117
in 2-pentanol, 313.15 K	0.000141
in 2-pentanol, 318.29 K	0.000169
in 2-pentanol, 323.15 K	0.000196
in 2-pentanol, 328.34 K	0.000233
in 2-pentanol, 333.05 K	0.000267
in 2-pentanol, 338.24 K	0.00031
in 2-pentanol, 343.26 K	0.000354
in ethanol, 293.25 K	0.000405
in ethanol, 298.26 K	0.000437
in ethanol, 303.25 K	0.000478
in ethanol, 308.19 K	0.000519
in ethanol, 313.09 K	0.00056
in ethanol, 318.26 K	0.000629
in ethanol, 323.11 K	0.000681
in ethanol, 328.18 K	0.000753
in ethanol, 333.41 K	0.000834
in ethanol, 338.31 K	0.000916
in ethanol, 343.35 K	0.00104
in isopropanol, 293.25 K	5.74e-05
in isopropanol, 298.23 K	6.38e-05
in isopropanol, 303.05 K	7.22e-05
in isopropanol, 308.41 K	8.4e-05
in isopropanol, 313.15 K	9.66e-05
in isopropanol, 318.26 K	0.000112
in isopropanol, 323.15 K	0.00013
in isopropanol, 328.19 K	0.00015
in isopropanol, 333.35 K	0.000173
in isopropanol, 338.27 K	0.000198
in isopropanol, 343.25 K	0.000225
in methanol, 293.15 K	0.00346
in methanol, 298.22 K	0.0037
in methanol, 303.15 K	0.00396
in methanol, 308.19 K	0.00424
in methanol, 313.35 K	0.00454
in methanol, 318.27 K	0.00485
in methanol, 323.35 K	0.00519
in methanol, 328.16 K	0.00552
in methanol, 333.35 K	0.006
in n-butanol, 293.15 K	9.97e-05
in n-butanol, 298.31 K	0.00011
in n-butanol, 302.95 K	0.000122
in n-butanol, 308.19 K	0.000139
in n-butanol, 312.95 K	0.000158
in n-butanol, 318.16 K	0.000181
in n-butanol, 323.25 K	0.000207
in n-butanol, 328.29 K	0.000237
in n-butanol, 333.17 K	0.000268
in n-butanol, 338.32 K	0.000304
in n-butanol, 342.95 K	0.000339
in n-pentanol, 293.05 K	8.48e-05
in n-pentanol, 298.25 K	0.000102
in n-pentanol, 303.25 K	0.000119
in n-pentanol, 308.19 K	0.000134
in n-pentanol, 313.07 K	0.000152
in n-pentanol, 318.26 K	0.00017
in n-pentanol, 323.25 K	0.00019
in n-pentanol, 328.17 K	0.000209
in n-pentanol, 333.25 K	0.000226
in n-pentanol, 338.13 K	0.000252
in n-pentanol, 343.35 K	0.000279
in n-propanol, 293.15 K	0.000178
in n-propanol, 298.23 K	0.000191
in n-propanol, 303.05 K	0.000206
in n-propanol, 308.18 K	0.000228
in n-propanol, 313.05 K	0.000256
in n-propanol, 318.29 K	0.00028
in n-propanol, 323.05 K	0.000306
in n-propanol, 328.21 K	0.000345
in n-propanol, 333.25 K	0.000382
in n-propanol, 338.34 K	0.000427
in n-propanol, 343.35 K	0.000476
in sec-butanol, 293.35 K	3.51e-05
in sec-butanol, 298.24 K	4.38e-05
in sec-butanol, 303.05 K	5.87e-05
in sec-butanol, 308.17 K	6.64e-05
in sec-butanol, 313.05 K	8.11e-05
in sec-butanol, 318.36 K	9.62e-05
in sec-butanol, 323.23 K	0.000113
in sec-butanol, 328.26 K	0.000132
in sec-butanol, 333.15 K	0.000151
in sec-butanol, 338.28 K	0.000174
in sec-butanol, 343.23 K	0.000197
